Results taken from patent US9732119B2, “Immunomodulators” (BRISTOL-MYERS SQUIBB COMPANY, priority 2014, dated 2017).
Positions of bridges follow the written chain, without caps; N, C: chain ends. Non-standard residues stand in square brackets, D forms with d. Residues, ends and D or L forms follow the SMILES beside them. Trp(1-CH2COOH) = N[C@@H](Cc1cn(CC(=O)O)c2ccccc12)C(=O)O; Phe(4-Cl) = N[C@@H](Cc1ccc(Cl)cc1)C(=O)O; Phe(4-F) = N[C@@H](Cc1ccc(F)cc1)C(=O)O; Hyp = O=C(O)[C@@H]1C[C@@H](O)CN1; Aad = N[C@@H](CCCC(=O)O)C(=O)O; NMeNle = CCCC[C@H](NC)C(=O)O; dOrn = NCCC[C@@H](N)C(=O)O; Pip = O=C(O)[C@@H]1CCCCN1; NMeA = CN[C@@H](C)C(=O)O; Dab = NCC[C@H](N)C(=O)O; Dap = NC[C@H](N)C(=O)O; Ava = NCCCCC(=O)O; Sar = CNCC(=O)O

What follows are molecules tested against T1, PD-1-Ig binding to PD-L1-TVMV-His (PD-L1-His) (Homo sapiens, UniProt Q9NZQ7) (assay: PD-1/PD-L1 Homogenous Time-Resolved Fluorescence (HTRF) binding assay). Conditions: PD-1-Ig (20 nM) / PD-L1-His (10 nM); numeric values.
T1 construct: hPDL1(19-239)-TVMV-His; made in house; host or cells: HEK293T cells
T1 sequence (Q9NZQ7 with tags, fused parts or gaps): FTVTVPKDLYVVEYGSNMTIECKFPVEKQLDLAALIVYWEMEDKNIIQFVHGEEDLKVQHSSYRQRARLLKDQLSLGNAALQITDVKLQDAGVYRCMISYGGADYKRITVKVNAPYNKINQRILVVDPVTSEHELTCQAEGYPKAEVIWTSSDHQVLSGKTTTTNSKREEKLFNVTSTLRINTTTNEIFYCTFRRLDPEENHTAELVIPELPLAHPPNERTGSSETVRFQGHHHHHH
How it was run: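 HTRF competition: compound pre-incubated 15 min with PD-L1-His (10 nM final), then PD-1-Ig (20 nM final) added for 15 min in dPBS, 0.1% BSA, 0.05% Tween-20. Detection with Eu-cryptate anti-Ig (1 nM) and APC anti-His (20 nM) antibodies.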
CCCC[C@H]1C(=O)N(C)[C@@H](CCCC)C(=O)N[C@@H](CC(C)C)C(=O)NCCCCC(=O)N[C@@H](Cc2ccc(O)cc2)C(=O)N(C)[C@@H](C)C(=O)N[C@@H](CC(=O)O)C(=O)N2CCC[C@H]2C(=O)N[C@@H](Cc2c[nH]cn2)C(=O)N[C@@H](CCCCN)C(=O)N2C[C@H](O)C[C@H]2C(=O)N[C@@H](Cc2c[nH]c3ccccc23)C(=O)N[C@@H](CCCCN)C(=O)N[C@@H](Cc2cn(CC(=O)O)c3ccccc23)C(=O)N1C [Example 10509] (cyclo([Ava]Y[NMeA]DPHK[Hyp]WK[Trp(1-CH2COOH)][NMeNle][NMeNle]L)) gave an IC50 of 765 nM.

Same assay, conditions: PD-1-Ig (20 nM) / PD-L1-His (10 nM); range classes
Work on CCCC[C@H]1C(=O)N(C)[C@@H](CCCC)C(=O)N[C@@H](CC(C)C)C(=O)N[C@H](C(=O)NCC(N)=O)CNCC(=O)N[C@@H](Cc2ccc(F)cc2)C(=O)N(C)[C@@H](C)C(=O)N[C@@H](CC(=O)O)C(=O)N2CCC[C@H]2C(=O)N[C@@H](CCC(N)=O)C(=O)N[C@@H](CCC(=O)O)C(=O)N2C[C@H](O)C[C@H]2C(=O)N[C@@H](Cc2c[nH]c3ccccc23)C(=O)N[C@@H](CC(N)=O)C(=O)N[C@@H](Cc2cn(CC(=O)O)c3ccccc23)C(=O)N1C [Example 9016] yielded an IC50 of 1 to 9.9 nM.
CCCC[C@H]1C(=O)N(C)[C@@H](CCCC)C(=O)N[C@@H](CC(C)C)C(=O)N[C@H](C(=O)NCC(N)=O)CCCNCC(=O)N[C@@H](Cc2ccc(O)cc2)C(=O)N(C)[C@@H](C)C(=O)N[C@@H](CC(N)=O)C(=O)N2CCC[C@H]2C(=O)N[C@@H](Cc2cnc[nH]2)C(=O)N[C@@H](CCC(N)=O)C(=O)N2C[C@H](O)C[C@H]2C(=O)N[C@@H](Cc2c[nH]c3ccccc23)C(=O)NCC(=O)N[C@@H](Cc2c[nH]c3ccccc23)C(=O)N1C [Example 10019] showed an IC50 of 100 to 10000 nM.
CCCC[C@H]1C(=O)N(C)[C@@H](CCCC)C(=O)N[C@@H](CCC(=O)O)C(=O)N[C@H](C(N)=O)CNCC(=O)N[C@@H](Cc2ccc(F)cc2)C(=O)N2CCCC[C@H]2C(=O)N[C@@H](CC(N)=O)C(=O)N2CCC[C@H]2C(=O)N[C@@H](CCC(N)=O)C(=O)N[C@@H](CCC(N)=O)C(=O)N2C[C@H](O)C[C@H]2C(=O)N[C@@H](Cc2c[nH]c3ccccc23)C(=O)N[C@@H](CC(N)=O)C(=O)N[C@@H](Cc2cn(CC(=O)O)c3ccccc23)C(=O)N1C [Example 9048] gave an IC50 of 1 to 9.9 nM.
CCCC[C@H]1C(=O)N(C)[C@@H](CCCC)C(=O)N[C@@H](CC(C)C)C(=O)N[C@H](C(=O)NCC(N)=O)CCCC(=O)N[C@@H](Cc2ccc(O)cc2)C(=O)N(C)[C@@H](C)C(=O)N[C@@H](CC(N)=O)C(=O)N2CCC[C@H]2C(=O)N[C@@H](CN)C(=O)N[C@@H](CCC(=O)O)C(=O)N2C[C@H](O)C[C@H]2C(=O)N[C@@H](Cc2c[nH]c3ccccc23)C(=O)N[C@@H](CCN)C(=O)N[C@@H](Cc2cn(CC(=O)O)c3ccccc23)C(=O)N1C [Example 10507] (Y[NMeA]NP[Dap]E[Hyp]W[Dab][Trp(1-CH2COOH)][NMeNle][NMeNle]L[Aad]G-NH2; lactam N-14) was tested, and the IC50 was 1 to 9.9 nM.
CCCC[C@H]1C(=O)N(C)[C@@H](CCCC)C(=O)N[C@@H](CC(C)C)C(=O)N[C@H](C(N)=O)COCC(=O)N[C@@H](Cc2ccc(F)cc2)C(=O)N2CCCC[C@H]2C(=O)N[C@@H](CC(N)=O)C(=O)N2CCC[C@H]2C(=O)N[C@@H](CN)C(=O)N[C@@H](CC(C)C)C(=O)N2C[C@H](O)C[C@H]2C(=O)N[C@@H](Cc2c[nH]c3ccccc23)C(=O)N[C@@H](CCN)C(=O)N[C@@H](Cc2cn(CC(=O)O)c3ccccc23)C(=O)N1C [Example 10529] gave an IC50 of 10 to 99 nM.
With CCCC[C@H]1C(=O)N(C)[C@@H](CCCC)C(=O)N[C@@H](CCC(=O)O)C(=O)N[C@H](C(N)=O)CCCC(=O)N[C@@H](Cc2ccc(F)cc2)C(=O)N2CCCC[C@H]2C(=O)N[C@@H](CC(N)=O)C(=O)N2CCC[C@H]2C(=O)N[C@@H](CN)C(=O)N[C@@H](CC(C)C)C(=O)N2C[C@H](O)C[C@H]2C(=O)N[C@@H](Cc2c[nH]c3ccccc23)C(=O)N[C@@H](CCN)C(=O)N[C@@H](Cc2cn(CC(=O)O)c3ccccc23)C(=O)N1C [Example 10564] ([Phe(4-F)][Pip]NP[Dap]L[Hyp]W[Dab][Trp(1-CH2COOH)][NMeNle][NMeNle]E[Aad]-NH2; lactam N-14) the IC50 was 10 to 99 nM.
CCCC[C@H]1C(=O)N(C)[C@@H](CCCC)C(=O)N[C@@H](CC(C)C)C(=O)N[C@H](C(=O)NCC(N)=O)CNCC(=O)N[C@@H](Cc2ccc(OC)cc2)C(=O)N(C)[C@@H](C)C(=O)N[C@@H](CC(N)=O)C(=O)N2CCC[C@H]2C(=O)N[C@@H](CN)C(=O)N[C@@H](CC(C)C)C(=O)N2C[C@H](O)C[C@H]2C(=O)N[C@@H](Cc2c[nH]c3ccccc23)C(=O)N[C@@H](CCN)C(=O)N[C@@H](Cc2cn(CC(=O)O)c3ccccc23)C(=O)N1C [Example 1039] gave an IC50 of 1 to 9.9 nM.
CCCC[C@H]1C(=O)N(C)[C@@H](CCCC)C(=O)N[C@@H](CC(C)C)C(=O)NCCC[C@@H](N)C(=O)N[C@@H](Cc2ccc(O)cc2)C(=O)N2CCCC[C@H]2C(=O)N[C@@H](CC(N)=O)C(=O)N2CCC[C@H]2C(=O)N[C@@H](CN)C(=O)N[C@@H](CC(C)C)C(=O)N2C[C@H](O)C[C@H]2C(=O)N[C@@H](Cc2c[nH]c3ccccc23)C(=O)N[C@@H](CCN)C(=O)N[C@@H](Cc2cn(CC(=O)O)c3ccccc23)C(=O)N1C [Example 10558] (H-[dOrn]Y[Pip]NP[Dap]L[Hyp]W[Dab][Trp(1-CH2COOH)][NMeNle][NMeNle]L; lactam 1-C) was tested, and the IC50 was 10 to 99 nM.
CCCC[C@H]1C(=O)N(C)[C@@H](CCCC)C(=O)N[C@@H](CC(C)C)C(=O)NCCCCC(=O)N[C@@H](Cc2ccc(OC)cc2)C(=O)N2CCCC[C@H]2C(=O)N[C@@H](CC(N)=O)C(=O)N2CCC[C@H]2C(=O)N[C@@H](CN)C(=O)N[C@@H](CC(C)C)C(=O)N2C[C@H](O)C[C@H]2C(=O)N[C@@H](Cc2c[nH]c3ccccc23)C(=O)N[C@@H](CCN)C(=O)N[C@@H](Cc2cn(CC(=O)O)c3ccccc23)C(=O)N1C [Example 10535] (cyclo([Ava]Y(Me)[Pip]NP[Dap]L[Hyp]W[Dab][Trp(1-CH2COOH)][NMeNle][NMeNle]L)) showed an IC50 of 1 to 9.9 nM.
Molecule CCCC[C@H]1C(=O)N(C)[C@@H](CCCC)C(=O)N[C@@H](CC(C)C)C(=O)NCCCCC(=O)N[C@@H](Cc2ccc(F)cc2)C(=O)N2CCCC[C@H]2C(=O)N[C@@H](CC(N)=O)C(=O)N2CCC[C@H]2C(=O)N[C@@H](CN)C(=O)N[C@@H](CC(C)C)C(=O)N2C[C@H](O)C[C@H]2C(=O)N[C@@H](Cc2c[nH]c3ccccc23)C(=O)N[C@@H](CCN)C(=O)N[C@@H](Cc2cn(CC(=O)O)c3ccccc23)C(=O)N1C [Example 10536] (cyclo([Ava][Phe(4-F)][Pip]NP[Dap]L[Hyp]W[Dab][Trp(1-CH2COOH)][NMeNle][NMeNle]L)) has an IC50 of 1 to 9.9 nM.
CCCC[C@H]1C(=O)N(C)[C@@H](CCCC)C(=O)NC(CC(C)C)C(=O)N[C@H](C(=O)NCC(N)=O)CNCC(=O)N[C@@H](Cc2ccc(O)cc2)C(=O)N(C)[C@@H](C)C(=O)N[C@@H](CC(N)=O)C(=O)N2CCC[C@H]2C(=O)N[C@@H](CC(N)=O)C(=O)N[C@@H](CC(C)C)C(=O)N2C[C@H](O)C[C@H]2C(=O)N[C@@H](Cc2c[nH]c3ccccc23)C(=O)N[C@@H](CC(N)=O)C(=O)N[C@@H](Cc2c[nH]c3ccccc23)C(=O)N1C (some centres unmarked) [Example 10001] showed an IC50 of 1 to 9.9 nM.
CCCC[C@H]1C(=O)N(C)[C@@H](CCCC)C(=O)N[C@@H](CCC(=O)O)C(=O)N[C@H](C(=O)NCC(N)=O)CNCC(=O)N[C@@H](Cc2ccc(O)cc2)C(=O)N(C)[C@@H](C)C(=O)N[C@@H](CC(N)=O)C(=O)N2CCC[C@H]2C(=O)N[C@@H](CCC(N)=O)C(=O)N[C@@H](CC(=O)O)C(=O)N2C[C@H](O)C[C@H]2C(=O)N[C@@H](Cc2c[nH]c3ccccc23)C(=O)N[C@@H](CC(N)=O)C(=O)N[C@@H](Cc2cn(CC(=O)O)c3ccccc23)C(=O)N1C [Example 9019] was tested, and the IC50 was 1 to 9.9 nM.
CCCC[C@H]1C(=O)N(C)[C@@H](CCCC)C(=O)N[C@@H](CC(C)C)C(=O)N(C)CC(=O)NCC(=O)N[C@@H](Cc2ccc(O)cc2)C(=O)N(C)[C@@H](C)C(=O)N[C@@H](CC(N)=O)C(=O)N2CCC[C@H]2C(=O)N[C@@H](CN)C(=O)N[C@@H](CC(C)C)C(=O)N2C[C@H](O)C[C@H]2C(=O)N[C@@H](Cc2c[nH]c3ccccc23)C(=O)N[C@@H](CCN)C(=O)N[C@@H](Cc2c[nH]c3ccccc23)C(=O)N1C [Example 5009] (cyclo([Dab]W[NMeNle][NMeNle]L[Sar]GY[NMeA]NP[Dap]L[Hyp]W)) gave an IC50 of 1 to 9.9 nM.
CCCC[C@H]1C(=O)N(C)[C@@H](CCCC)C(=O)N[C@@H](CC(C)C)C(=O)NCCCCC(=O)N[C@@H](Cc2ccc(Cl)cc2)C(=O)N2CCCC[C@H]2C(=O)N[C@@H](CC(N)=O)C(=O)N2CCC[C@H]2C(=O)N[C@@H](CN)C(=O)N[C@@H](CCC(=O)O)C(=O)N2C[C@H](O)C[C@H]2C(=O)N[C@@H](Cc2c[nH]c3ccccc23)C(=O)N[C@@H](CCN)C(=O)N[C@@H](Cc2cn(CC(=O)O)c3ccccc23)C(=O)N1C [Example 10544] (cyclo([Ava][Phe(4-Cl)][Pip]NP[Dap]E[Hyp]W[Dab][Trp(1-CH2COOH)][NMeNle][NMeNle]L)) gave an IC50 of 1 to 9.9 nM.
In the case of CCCC[C@H]1C(=O)N(C)[C@@H](CCCC)C(=O)N[C@@H](CCC(=O)O)C(=O)N[C@H](C(=O)NCC(N)=O)CNCC(=O)N[C@@H](Cc2ccc(O)cc2)C(=O)N(C)[C@@H](C)C(=O)N[C@@H](CC(N)=O)C(=O)N2CCC[C@H]2C(=O)N[C@@H](CCC(N)=O)C(=O)N[C@@H](CCC(=O)O)C(=O)N2C[C@H](O)C[C@H]2C(=O)N[C@@H](Cc2c[nH]c3ccccc23)C(=O)N[C@@H](CC(N)=O)C(=O)N[C@@H](Cc2cn(CC(=O)O)c3ccccc23)C(=O)N1C [Example 9020], the IC50 is reported as 10 to 99 nM.
CCCC[C@H]1C(=O)N(C)[C@@H](CCCC)C(=O)N[C@@H](CC(C)C)C(=O)N[C@H](C(=O)NCC(N)=O)CNCC(=O)N[C@@H](Cc2ccc(F)cc2)C(=O)N(C)[C@@H](C)C(=O)N[C@@H](CC(=O)O)C(=O)N2CCC[C@H]2C(=O)N[C@@H](CCC(N)=O)C(=O)N[C@@H](CCC(N)=O)C(=O)N2C[C@H](O)C[C@H]2C(=O)N[C@@H](Cc2c[nH]c3ccccc23)C(=O)N[C@@H](CC(N)=O)C(=O)N[C@@H](Cc2cn(CC(=O)O)c3ccccc23)C(=O)N1C [Example 9017] gave an IC50 of 10 to 99 nM.
